{"source": "patent US20210270843A1", "about": "“Immune Monitoring of Neuro-Inflammatory Amyotrophic Lateral Sclerosis (ALS)” (RAPA THERAPEUTICS, LLC, priority 2018, published 2021)", "key": {"[1]": {"system": "T cell receptor repertoire", "experiment": "RNA-based T cell receptor repertoire sequencing of ALS patient PBMC pre- and post-etanercept therapy"}, "[2]": {"system": "peripheral blood mononuclear cells from ALS patient", "experiment": "Autonomous cytokine secretion of ALS patient PBMC before and during etanercept therapy", "assay_type": "in vivo, human", "conditions": "etanercept 50 mg per week s.c., PBMC incubated 24 hr without stimulation, similar on three values over three months", "procedure": "We have observed that ALS patients can manifest autonomous inflammatory cytokine secretion when incubation of T cell- and monocyte-containing inoculum occurs for 24 hours in X-Vivo 20 media supplemented only with 5% human serum (FIG. 3). FIG. 3 depicts ALS patient and normal control autonomous cytokine secretion. ALS patient (“ALS”) and normal control (“NC”) peripheral blood mononuclear cells were either not separated (FIG. 3, right panel; mixture of T cells and monocytes), or separated into CD14^+ monocyte cells (FIG. 3, left panel) or CD3^+ T cells (FIG. 3, middle panel). The cells were incubated for 24 hours in media without any stimulation additives. After 24 hours, the supernatant was harvested and tested for cytokine content; TNF-α content is shown, with result described as pg per ml per 1×10^6 cells per 24 hours. […]\nWe reasoned that detection of autonomous secretion of inflammatory cytokines will have potential clinical implications, for example, in the monitoring of ALS disease response to investigational therapy. Towards this aim, we evaluated cytokine secretion in an ALS patient prior to and then after experimental therapy with the anti-TNF-α soluble recombinant receptor, etancercept (Enbrel®); there have been no reports of clinical trials evaluating etanercept therapy of ALS. […]"}, "PBMC": {"system": "PBMC", "experiment": "CD40 ligand-driven cytokine secretion of PBMC (24 h culture, multiplex assay)", "assay_type": "cell-based", "conditions": "X-Vivo 20 media with 5% human serum", "description": "Given this possibility, we evaluated whether simple addition of the recombinant human (rhu) CD40L molecule might uncover autonomous inflammatory cytokine secretion in ALS patients. There are no reports in the literature to date pertaining to CD40L-stimulation of ALS patient PBMC. […] Therefore, the detection of the inflammatory subset of ALS can be expanded by inclusion of patients that secrete cytokines autonomously and those patients that secrete inflammatory cytokines after CD40L stimulation. Patient hypersensitivity to CD40 ligand is driven by an imbalance in the post-CD40 receptor signaling pathway, with increased TRAF6 contribution to the signaling cascade during neuro-inflammation; importantly, the TRAF2 and TRAF3 family members inhibit post-CD40 signaling. As such, given this information, our monitoring method will also include Western Blot analyses for the detection of ALS patient balance of the TRAF family of proteins.\nIn FIG. 6, a sibling of a subject who was a carrier for the C9orf72 mutation was evaluated for autonomous cytokine secretion. […] This illustrates the importance of both neurologic and immunologic risk factors. […]"}, "[3]": {"conditions": "individual clones, post- versus pre-etanercept"}}, "note": "Several values for one entry are separate records, joined by “and”; a condition that tells them apart may be missing. Equal values may be shown once."}
{"molecule": "etanercept", "values": [{"measurement": "TCR clonality, Diversity Index (CHAOE) after therapy", "setting": "[1]; ALS patient post-therapy, pre-therapy sample approximately 650,000, normal controls ~300,000", "value": "approximately 599,000"}, {"measurement": "reduction in TCR clonality in post-therapy sample", "setting": "[1]; ALS patient, post- versus pre-therapy", "value": "~10", "unit": "%"}, {"measurement": "T cell clonal contraction", "setting": "[1]; [3]", "value": "more than 4 log and ~4 log"}, {"measurement": "T cell clonal expansion", "setting": "[1]; [3]", "value": "more than 4 log and ~4 log"}, {"measurement": "post-treatment frequency of contracted T cell clones", "setting": "[1]; several clones, pre-etanercept frequencies 259 to 598", "value": 0.01}, {"measurement": "autonomous secretion of IL-6", "setting": "[2]", "value": "reduced"}, {"measurement": "autonomous secretion of TNF-α", "setting": "[2]", "value": "reduced"}]}
{"molecule": "rhu CD40L: recombinant human (rhu) CD40L molecule (protein, UniProt P29965 113-261, looked up) CD40 ligand, soluble form: MQKGDQNPQIAAHVISEASSKTTSVLQWAEKGYYTMSNNLVTLENGKQLTVKRQGLYYIYAQVTFCSNREASSQAPFIASLCLKSPGRFERILLRAANTHSSAKPCGQQSIHLGGVFELQPGASVFVNVTDPSQVSHGTGFTSFGLLKL", "values": [{"measurement": "inflammatory cytokine production", "setting": "PBMC; PBMC from an ALS patient", "value": "can induce inflammatory cytokine production"}, {"measurement": "cytokine secretion after stimulation with CD40L", "setting": "PBMC; PBMC from sibling of a C9orf72 mutation carrier", "value": "high levels of cytokine secretion"}]}
